Assay results reported in ChEMBL document CHEMBL1139972, “Dihydro-[1H]-quinolin-2-ones as retinoid X receptor (RXR) agonists for potential treatment of dyslipidemia” (Bioorg Med Chem Lett, 2007).
Each block holds one molecule with its values, some of them ahead of it. Activity calls are given as the source filed them. The rule behind the calls is not given here.

Assays:
[1] = Activity at RXR-PPARgamma in human preadipocytes assessed as induction of adipocytes fatty acid binding protein; type: cell-based
Rattus norvegicus [2] = assay: Effect on serum cholesterol level in high cholesterol diet fed Sprague-Dawley rat at 10 mg/kg, po after 8 days relative to control; type: functional
Rattus norvegicus [3] = assay: Effect on serum triglyceride level in high cholesterol diet fed Sprague-Dawley rat at 10 mg/kg, po after 8 days relative to control; type: functional
Rattus norvegicus [4] = assay: Effect on serum LDL-C level in high cholesterol diet fed Sprague-Dawley rat at 10 mg/kg, po after 8 days relative to control; type: functional
Rattus norvegicus [5] = assay: Effect on serum HDL-C level in high cholesterol diet fed Sprague-Dawley rat at 10 mg/kg, po after 8 days relative to control; type: functional
[6] = Activity at RXR-LXR heterodimer assessed as induction of ABCA1 mRNA; parameters: species or system Homo sapiens
[7] = molecular target: T1, Retinoic acid receptor RXR-alpha (Homo sapiens, UniProt P19793); assay: Activity at RXRalpha by GAL4DNA cotransfection assay
T1 sequence (P19793 whole entry): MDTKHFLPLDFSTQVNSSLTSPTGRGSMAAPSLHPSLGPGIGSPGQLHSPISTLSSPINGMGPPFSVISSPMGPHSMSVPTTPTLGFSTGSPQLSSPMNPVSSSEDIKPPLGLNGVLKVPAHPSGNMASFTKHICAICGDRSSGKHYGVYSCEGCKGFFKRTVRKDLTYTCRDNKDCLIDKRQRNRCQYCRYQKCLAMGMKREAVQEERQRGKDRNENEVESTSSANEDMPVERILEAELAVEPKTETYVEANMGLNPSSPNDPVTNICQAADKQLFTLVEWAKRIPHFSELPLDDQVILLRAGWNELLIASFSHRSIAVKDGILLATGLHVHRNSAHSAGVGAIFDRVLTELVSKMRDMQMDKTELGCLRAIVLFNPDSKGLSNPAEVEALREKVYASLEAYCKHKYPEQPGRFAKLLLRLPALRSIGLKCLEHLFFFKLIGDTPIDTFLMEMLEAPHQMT

Homo sapiens = species: Homo sapiens; assay: Activation of RXR-LXR heterodimer assessed as induction of ABCA1 mRNA relative to 5-((3-(1-ethyl-4,4,6-trimethyl-2-oxo-1,2,3,4-tetrahydroquinolin-7-yl)-4-(trifluoromethoxy)phenyl)methylene)thiazolidine-2,4-dione; parameters: concentration or dose not given beside the values
[8] = molecular target: T2, Retinoic acid receptor RXR-alpha (Homo sapiens) (UniProt P19793); assay: Activity at RXRalpha by GAL4DNA cotransfection assay relative to 5-((3-(1-ethyl-4,4,6-trimethyl-2-oxo-1,2,3,4-tetrahydroquinolin-7-yl)-4-(trifluoromethoxy)phenyl)methylene)thiazolidine-2,4-dione; parameters: concentration or dose not given beside the values
T2 sequence (whole entry): T1 sequence (P19793 whole entry)

Rattus norvegicus [9] = assay: Effect on serum cholesterol level in high cholesterol diet fed Sprague-Dawley rat at 3 mg/kg, po after 8 days relative to control; type: functional
Rattus norvegicus [10] = assay: Effect on serum cholesterol level in high cholesterol diet fed Sprague-Dawley rat at 1 mg/kg, po after 8 days relative to control; type: functional
Rattus norvegicus [11] = assay: Effect on serum LDL-C level in high cholesterol diet fed Sprague-Dawley rat at 30 mg/kg, po after 8 days relative to control; type: functional
Rattus norvegicus [12] = assay: Effect on serum LDL-C level in high cholesterol diet fed Sprague-Dawley rat at 3 mg/kg, po after 8 days relative to control; type: functional
Rattus norvegicus [13] = assay: Effect on serum cholesterol level in high cholesterol diet fed Sprague-Dawley rat at 30 mg/kg, po after 8 days relative to control; type: functional
[14] = Oral bioavailability in rat at 3 mg/kg; type: ADME, organism-based; settings: in vivo
Rattus norvegicus [15] = assay: Effect on serum cholesterol level in high cholesterol diet fed Sprague-Dawley rat at 0.3 mg/kg, po after 8 days relative to control; type: functional
Mus musculus = species: Mus musculus; assay: Decrease in blood glucose level in db/db mouse after 11 days; type: functional, organism-based
Rattus norvegicus [16] = assay: Effect on serum HDL-C level in high cholesterol diet fed Sprague-Dawley rat at 3 mg/kg, po after 8 days relative to control; type: functional
Rattus norvegicus [17] = assay: Effect on serum triglyceride level in high cholesterol diet fed Sprague-Dawley rat at 3 mg/kg, po after 8 days relative to control; type: functional
Rattus norvegicus [18] = assay: Effect on serum LDL-C level in high cholesterol diet fed Sprague-Dawley rat at 1 mg/kg, po after 8 days relative to control; type: functional
[19] = Cmax in rat at 3 mg/kg, po; type: ADME, organism-based; parameters: dose 3 mg/kg, route oral; settings: in vivo
[20] = Cmax in high cholesterol diet fed Sprague-Dawley rat at 30 mg/kg, po after 8 days; type: ADME, organism-based; parameters: dose 30 mg/kg, route oral; settings: in vivo
[21] = AUC in rat at 3 mg/kg, po; type: ADME, organism-based; parameters: dose 3 mg/kg, route oral; settings: plasma
Rattus norvegicus [22] = assay: Effect on serum HDL-C level in high cholesterol diet fed Sprague-Dawley rat at 0.3 mg/kg, po after 8 days relative to control; type: functional
Rattus norvegicus [23] = assay: Effect on serum triglyceride level in high cholesterol diet fed Sprague-Dawley rat at 30 mg/kg, po after 8 days relative to control; type: functional
Rattus norvegicus [24] = assay: Effect on serum triglyceride level in high cholesterol diet fed Sprague-Dawley rat at 1 mg/kg, po after 8 days relative to control; type: functional
Rattus norvegicus [25] = assay: Effect on serum LDL-C level in high cholesterol diet fed Sprague-Dawley rat at 0.3 mg/kg, po after 8 days relative to control; type: functional
[26] = Clearance in rat at 3 mg/kg, po; type: ADME, organism-based; parameters: dose 3 mg/kg, route oral; settings: in vivo
[27] = Half life in rat at 3 mg/kg, po; type: ADME, organism-based; parameters: dose 3 mg/kg, route oral; settings: in vivo
[28] = Cmax in high cholesterol diet fed Sprague-Dawley rat at 0.3 mg/kg, po after 8 days; type: ADME, organism-based; parameters: dose 0.3 mg/kg, route oral; settings: in vivo
Rattus norvegicus [29] = assay: Effect on serum HDL-C level in high cholesterol diet fed Sprague-Dawley rat at 1 mg/kg, po after 8 days relative to control; type: functional
Rattus norvegicus [30] = assay: Effect on serum HDL-C level in high cholesterol diet fed Sprague-Dawley rat at 30 mg/kg, po after 8 days relative to control; type: functional
Rattus norvegicus [31] = assay: Effect on serum triglyceride level in high cholesterol diet fed Sprague-Dawley rat at 0.3 mg/kg, po after 8 days relative to control; type: functional

Structure (SMILES): CCN1C(=O)CC(C)(C)c2cc(C)c(-c3cc(OC(C)(C)C(=O)O)ccc3OC(F)(F)F)cc21
EC50 [6]: > 3000 nM

Structure (SMILES): CCN1C(=O)CC(C)(C)c2cc(C)c(-c3cc(/C=C/C(=O)O)ccc3OC(F)(F)F)cc21
Activity (Homo sapiens): 81%
Activity [8]: 115%
EC50 [6]: 3.6 nM

Structure (SMILES): Cc1cc2c(cc1-c1cc(CCC(=O)O)ccc1OC(F)(F)F)N(CC(F)(F)F)C(=O)CC2(C)C
EC50 [7]: 1.4 nM
Activity [8]: 100%
EC50 [6]: > 3000 nM

Structure (SMILES): CCN1C(=O)CC(C)(C)c2cc(C)c(-c3cc(CC(C)C(=O)O)ccc3OC(F)(F)F)cc21 (stereo not given)
EC50 [7]: 760 nM
Activity [8]: 85%
EC50 [6]: > 3000 nM

Structure (SMILES): CCN1C(=O)CC(C)(C)c2cc(C)c(-c3cc([C@@H]4C[C@H]4C(=O)O)ccc3OC(F)(F)F)cc21
EC50 [1]: 581 nM
EC50 [7]: 2.3 nM
Activity [8]: 85%
EC50 [6]: > 3000 nM

Second part, led by results:

EC50 [1]: 139 nM
EC50 [6]: 180 nM
Structure (SMILES): CCN1C(=O)CC(C)(C)c2cc(C)c(-c3cc(/C=C4\SC(=O)NC4=O)ccc3OC(F)(F)F)cc21
Activity (Rattus norvegicus [2]): 267 mg/dL
Activity (Rattus norvegicus [3]): 286 mg/dL
Activity (Rattus norvegicus [4]): 41 mg/dL
Activity (Rattus norvegicus [5]): 47 mg/dL

EC50 [7]: 37.7 nM
Activity (Homo sapiens): 160%
Activity [8]: 99%
EC50 [6]: 347 nM
Structure (SMILES): CCN1C(=O)CC(C)(C)c2cc(C)c(-c3cc(C(C)CC(=O)O)ccc3OC(F)(F)F)cc21 (stereo not given)

EC50 [7]: 36.5 nM
Activity (Homo sapiens): 45%
Activity [8]: 79%
EC50 [6]: 369 nM
Structure (SMILES): Cc1cc2c(cc1-c1cc(CCC(=O)O)ccc1OCC(F)(F)F)N(C(C)C)C(=O)CC2(C)C

EC50 [7]: 361 nM
Activity [8]: 92%
EC50 [6]: > 3000 nM
Structure (SMILES): CCN1C(=O)CC(C)(C)c2cc(C)c(-c3cc([C@H]4C[C@@H]4C(=O)O)ccc3OC(F)(F)F)cc21

EC50 [7]: 198 nM
Activity [8]: 50%
EC50 [6]: > 3000 nM
Structure (SMILES): Cc1cc2c(cc1-c1cc([C@H]3C[C@@H]3C(=O)O)ccc1OC(F)(F)F)N(C(C)C)C(=O)CC2(C)C

EC50 [1]: 1200 nM
bioavailability [14]: 71%
EC50 [7]: 7.2 nM
Cmax [19]: 678 ng/mL
Cmax [20]: 7510 ng/mL
AUC [21]: 6130 ng·h/mL
Activity (Homo sapiens): 70%
Activity [8]: 79%
CL/F [26]: 4.6 mL/min/kg
half-life [27]: 24 h
Cmax [28]: 58.5 ng/mL
EC50 [6]: 47 nM
Structure (SMILES): CCN1C(=O)CC(C)(C)c2cc(C)c(-c3cc(CCC(=O)O)ccc3OC(F)(F)F)cc21
Activity (Rattus norvegicus [9]): 302 mg/dL
Activity (Rattus norvegicus [10]): 313 mg/dL
Activity (Rattus norvegicus [11]): 38 mg/dL
Activity (Rattus norvegicus [12]): 46 mg/dL
Activity (Rattus norvegicus [13]): 252 mg/dL
Activity (Rattus norvegicus [15]): 343 mg/dL
Activity (Mus musculus): inactive
Activity (Rattus norvegicus [16]): 37 mg/dL
Activity (Rattus norvegicus [17]): 253 mg/dL
Activity (Rattus norvegicus [2]): 228 mg/dL
Activity (Rattus norvegicus [18]): 46 mg/dL
Activity (Rattus norvegicus [3]): 270 mg/dL
Activity (Rattus norvegicus [22]): 29 mg/dL
Activity (Rattus norvegicus [4]): 35 mg/dL
Activity (Rattus norvegicus [23]): 322 mg/dL
Activity (Rattus norvegicus [24]): 279 mg/dL
Activity (Rattus norvegicus [25]): 53 mg/dL
Activity (Rattus norvegicus [5]): 39 mg/dL
Activity (Rattus norvegicus [29]): 30 mg/dL
Activity (Rattus norvegicus [30]): 42 mg/dL
Activity (Rattus norvegicus [31]): 320 mg/dL

EC50 [1]: > 3000 nM
EC50 [7]: 70.2 nM
Activity [8]: 90%
EC50 [6]: > 3000 nM
Structure (SMILES): CCN1C(=O)CC(C)(C)c2cc(C)c(-c3cc(CCC(=O)O)ccc3OCC(F)(F)F)cc21

EC50 [7]: 27.9 nM
Activity (Homo sapiens): 49%
Activity [8]: 81%
EC50 [6]: 100 nM
Structure (SMILES): CCN1C(=O)CC(C)(C)c2cc(C)c(-c3cc(/C=C(\C)C(=O)O)ccc3OC(F)(F)F)cc21
